From patent publication US20250353863A1, “TRICYCLIC SPIROLACTAM COMPOUNDS WITH ANTIMYCOBACTERIAL ACTIVITY” (priority 2022, published 2025)
Converted amounts (≈) assume the structure as drawn. Where two headings read alike, the source gives them in different places.

Experiments:
[1] = biological target: purified Ndh (Mtb recombinant MBP tagged Ndh-2 enzyme, MBP-Ndh) (Mycobacterium tuberculosis (strain ATCC 25618 / H37Rv), UniProt P95160); experiment: Biochemical evaluation of MBP-Ndh inhibition (NADH oxidation with menadione)
Chain of purified Ndh (Mtb recombinant MBP tagged Ndh-2 enzyme, MBP-Ndh) (P95160 whole entry, looked up): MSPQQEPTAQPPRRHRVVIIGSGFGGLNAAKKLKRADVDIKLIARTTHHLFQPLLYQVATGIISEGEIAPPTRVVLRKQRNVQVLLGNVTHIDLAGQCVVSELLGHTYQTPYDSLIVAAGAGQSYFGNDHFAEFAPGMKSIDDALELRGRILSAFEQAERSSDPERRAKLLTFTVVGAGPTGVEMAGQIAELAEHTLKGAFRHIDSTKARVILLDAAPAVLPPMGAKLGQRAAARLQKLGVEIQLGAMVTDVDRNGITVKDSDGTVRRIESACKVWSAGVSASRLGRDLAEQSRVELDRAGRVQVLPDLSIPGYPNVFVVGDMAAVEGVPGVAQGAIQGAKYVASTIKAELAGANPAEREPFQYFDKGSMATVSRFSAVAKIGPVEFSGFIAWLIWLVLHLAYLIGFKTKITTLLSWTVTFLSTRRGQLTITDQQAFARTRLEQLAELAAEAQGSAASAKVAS

Mtb H37Rv-WT = experiment: MIC by resazurin microtiter assay (REMA) against Mtb; type: cell-based; details: Mycobacterium tuberculosis
BCG = experiment: microbe, parasite or virus in culture; type: cell-based; details: Mycobacterium tuberculosis variant bovis BCG, read-out: MIC BCG
M. avium = experiment: MIC analysis of non-Mtb mycobacteria; type: cell-based; details: Mycobacterium avium, 120 h; 5 days incubation
[2] = biological target: NdhA-M. tb (recombinant MBP-NdhA) (Mycobacterium tuberculosis (strain ATCC 25618 / H37Rv), UniProt P95200); experiment: Biochemical evaluation of MBP-NdhA inhibition (NADH oxidation with menadione)
Chain of NdhA-M. tb (recombinant MBP-NdhA) (P95200 whole entry, looked up): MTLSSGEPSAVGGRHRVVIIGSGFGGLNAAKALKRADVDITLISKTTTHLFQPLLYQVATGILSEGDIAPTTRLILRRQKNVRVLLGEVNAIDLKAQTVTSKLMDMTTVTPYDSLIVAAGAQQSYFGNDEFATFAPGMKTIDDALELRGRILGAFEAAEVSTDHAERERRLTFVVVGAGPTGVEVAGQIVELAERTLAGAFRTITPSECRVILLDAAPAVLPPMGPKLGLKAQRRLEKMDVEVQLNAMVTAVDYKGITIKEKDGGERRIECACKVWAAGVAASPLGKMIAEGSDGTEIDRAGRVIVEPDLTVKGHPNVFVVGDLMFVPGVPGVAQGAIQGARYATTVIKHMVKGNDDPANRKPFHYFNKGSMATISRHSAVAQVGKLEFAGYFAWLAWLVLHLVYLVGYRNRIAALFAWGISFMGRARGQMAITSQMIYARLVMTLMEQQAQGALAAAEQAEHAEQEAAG

M. marinum = experiment: MIC analysis of non-Mtb mycobacteria; type: cell-based; details: Mycobacterium marinum, 120 h; 5 days, 30° C., visual inspection
M. abscessus S = experiment: MIC analysis of non-Mtb mycobacteria; type: cell-based, Mycobacterium abscessus; details: Mycobacteroides abscessus, 48 h; 2 days incubation
M. smegmatis = experiment: MIC analysis of non-Mtb mycobacteria; type: cell-based; details: Mycolicibacterium smegmatis, 48 h; 2 days incubation
M. abscessus R = experiment: MIC analysis of non-Mtb mycobacteria; type: cell-based, Mycobacterium abscessus; details: Mycobacteroides abscessus, 48 h; 2 days incubation
[3] = NADH 500 μM, menadione 100 μM, read-out: IC50 (μM) purified Ndh
[4] = 144 h, REMA, 37° C., 6 days, read-out: MIC (μM) H37Rv-WT
[5] = 144 h, read-out: MIC (μM) H37Rv-WT
[6] = REMA, read-out: MIC M. tuberculosis

CC(C)[C@H]1CO[C@]23CCN(CCc4ccc(C(F)(F)F)cc4)C[C@H]2CCC(=O)N13
IC50 [1, 3]: 0.1 to 1 µM
MIC (Mtb H37Rv-WT; [4]): < 1 µM

CC(C)[C@H]1CO[C@]23CCN(Cc4ccccn4)C[C@H]2CCC(=O)N13
IC50 [1]: 0.1 to 1 µM
MIC (Mtb H37Rv-WT; [5]): 1 to 10 µM (≈ 0.329 to 3.29 µg/mL)

CC(C)[C@H]1CO[C@]23CCN(C(=O)Cc4ccccc4)C[C@H]2CCC(=O)N13 [(3S,7aR,11aR)-3-isopropyl-9-(2-phenylacetyl)-2,3,6,7,7a,8,10,11-octahydrooxazolo[2,3-j][1,6]naphthyridin-5-one]
IC50 [1, 3]: > 1 µM
MIC (Mtb H37Rv-WT; [4]): > 10 µM

CC(C)[C@H]1CO[C@]23CCN(CCc4ccccc4)C[C@H]2CCC(=O)N13 [(3S,7aR,11aR)-3-isopropyl-9-(2-phenylethyl)-2,3,6,7,7a,8,10,11-octahydrooxazolo[2,3-j][1,6]naphthyridin-5-one]
IC50 [1, 3]: 0.1 to 1 µM
MIC (Mtb H37Rv-WT; [4]): 1 to 10 µM (≈ 0.342 to 3.42 µg/mL)

CC(C)[C@H]1CO[C@]23CCN(Cc4ccc5ccccc5n4)C[C@H]2CCC(=O)N13 [(3S,7aR,11aR)-3-isopropyl-9-(2-quinolylmethyl)-2,3,6,7,7a,8,10,11-octahydrooxazolo[2,3-j][1,6]naphthyridin-5-one]
IC50 [1, 3]: 0.1 to 1 µM
MIC (Mtb H37Rv-WT; [4]): < 1 µM

CC(C)[C@H]1CO[C@]23CCN(Cc4cccnc4)C[C@H]2CCC(=O)N13 [(3S,7aR,11aR)-3-isopropyl-9-(3-pyridylmethyl)-2,3,6,7,7a,8,10,11-octahydrooxazolo[2,3-j][1,6]naphthyridin-5-one]
IC50 [1, 3]: > 1 µM
MIC (Mtb H37Rv-WT; [5]): 1 to 10 µM (≈ 0.329 to 3.29 µg/mL)

CC(C)[C@H]1CO[C@]23CCN(Cc4cccc5cccnc45)C[C@H]2CCC(=O)N13 [(3S,7aR,11aR)-3-isopropyl-9-(8-quinolylmethyl)-2,3,6,7,7a,8,10,11-octahydrooxazolo[2,3-j][1,6]naphthyridin-5-one]
IC50 [1, 3]: > 1 µM
MIC (Mtb H37Rv-WT; [4]): 1 to 10 µM (≈ 0.38 to 3.8 µg/mL)

CC(C)[C@H]1CO[C@]23CCN(S(=O)(=O)c4ccc(C(F)(F)F)cc4)C[C@H]2CCC(=O)N13 [(3S,7aR,11aR)-3-isopropyl-9-[4-(trifluoromethyl)phenyl]sulfonyl-2,3,6,7,7a,8,10,11-octahydrooxazolo[2,3-j][1,6]naphthyridin-5-one]
IC50 [1, 3]: 0.1 to 1 µM
MIC (Mtb H37Rv-WT; [4]): 1 to 10 µM (≈ 0.446 to 4.46 µg/mL)

COc1ccc(CN2CC[C@]34OC[C@H](C(C)C)N3C(=O)CC[C@@H]4C2)cc1 [(3S,7aR,11aR)-3-isopropyl-9-[(4-methoxyphenyl)methyl]-2,3,6,7,7a,8,10,11-octahydrooxazolo[2,3-j][1,6]naphthyridin-5-one]
IC50 [1, 3]: 0.1 to 1 µM
MIC (Mtb H37Rv-WT; [4]): 1 to 10 µM (≈ 0.358 to 3.58 µg/mL)

CC(C)[C@H]1CO[C@]23CCN(Cc4ccc(C(F)(F)F)cn4)C[C@H]2CCC(=O)N13 [(3S,7aR,11aR)-3-isopropyl-9-[[5-(trifluoromethyl)-2-pyridyl]methyl]-2,3,6,7,7a,8,10,11-octahydrooxazolo[2,3-j][1,6]naphthyridin-5-one]
IC50 [1, 3]: 0.1 to 1 µM
MIC (Mtb H37Rv-WT; [4]): < 1 µM

CC(C)[C@H]1CO[C@]23CCN(Cc4ccc(C(F)(F)F)nc4)C[C@H]2CCC(=O)N13 [(3S,7aR,11aR)-3-isopropyl-9-[[6-(trifluoromethyl)-3-pyridyl]methyl]-2,3,6,7,7a,8,10,11-octahydrooxazolo[2,3-j][1,6]naphthyridin-5-one]
IC50 [1, 3]: < 0.1 µM
MIC (Mtb H37Rv-WT; [4]): < 1 µM

CC(C)[C@H]1CO[C@]23CCN(c4ccccc4)C[C@H]2CCC(=O)N13 [(3S,7aR,11aR)-3-isopropyl-9-phenyl-2,3,6,7,7a,8,10,11-octahydrooxazolo[2,3-j][1,6]naphthyridin-5-one]
IC50 [1, 3]: 0.1 to 1 µM
MIC (Mtb H37Rv-WT; [4]): 1 to 10 µM (≈ 0.314 to 3.14 µg/mL)

CC(C)[C@H]1CO[C@]23CCN(CC4CCCCC4)C[C@H]2CCC(=O)N13 [(3S,7aR,11aR)-9-(cyclohexylmethyl)-3-isopropyl-2,3,6,7,7a,8,10,11-octahydrooxazolo[2,3-j][1,6]naphthyridin-5-one]
IC50 [1, 3]: 0.1 to 1 µM
MIC (Mtb H37Rv-WT; [4]): < 1 µM

CC(C)[C@H]1CO[C@]23CCN(Cc4ccccc4)C[C@H]2CCC(=S)N13 [(3S,7aR,11aR)-9-benzyl-3-isopropyl-2,3,6,7,7a,8,10,11-octahydrooxazolo[2,3-j][1,6]naphthyridine-5-thione]
IC50 [1, 3]: 0.1 to 1 µM
MIC (Mtb H37Rv-WT; [4]): 1 to 10 µM (≈ 0.345 to 3.45 µg/mL)

CC(C)[C@H]1CS[C@]23CCN(Cc4ccccc4)C[C@H]2CCC(=O)N13 [(3S,7aR,11aR)-9-benzyl-3-isopropyl-2,3,6,7,7a,8,10,11-octahydrothiazolo[2,3-j][1,6]naphthyridin-5-one]
IC50 [1, 3]: > 1 µM

CC(C)(C)[C@H]1CO[C@]23CCN(Cc4ccccc4)C[C@H]2CCC(=O)N13 [(3S,7aR,11aR)-9-benzyl-3-tert-butyl-2,3,6,7,7a,8,10,11-octahydrooxazolo[2,3-j][1,6]naphthyridin-5-one]
IC50 [1, 3]: > 1 µM
MIC (Mtb H37Rv-WT; [4]): > 10 µM

CC(C)[C@H]1CO[C@]23CCN(Cc4ccc(C(F)(F)F)cc4)C[C@H]2CCC(=O)N13 [Example 2, (3S,7aR,11aR)-3-isopropyl-9-[[4-(trifluoromethyl)phenyl]methyl]-2,3,6,7,7a,8,10,11-octahydrooxazolo[2,3-j][1,6]naphthyridin-5-one]
MIC (BCG): 1 to 10 µM (≈ 0.396 to 3.96 µg/mL)
MIC (M. avium): < 1 µM
IC50 [2]: < 100 nM
MIC (M. marinum): < 1 µM
MIC (M. abscessus S): 1 to 10 µM (≈ 0.396 to 3.96 µg/mL)
MIC (Mtb H37Rv-WT; [6]): < 1 µM
MIC (M. smegmatis): 1 to 10 µM (≈ 0.396 to 3.96 µg/mL)
MIC (M. abscessus R): 1 to 10 µM (≈ 0.396 to 3.96 µg/mL)

CC(C)[C@H]1CO[C@]23CCN(Cc4ccc(OC(F)(F)F)cc4)C[C@H]2CCC(=O)N13 [Example 3, (3S,7aR,11aR)-3-isopropyl-9-[[4-(trifluoromethoxy)phenyl]methyl]-2,3,6,7,7a,8,10,11-octahyooxazolo[2,3-j][1,6]naphthyridin-5-one]
MIC (BCG): 1 to 10 µM (≈ 0.412 to 4.12 µg/mL)
MIC (M. avium): < 1 µM
IC50 [2]: < 100 nM
MIC (M. marinum): < 1 µM
MIC (M. abscessus S): 1 to 10 µM (≈ 0.412 to 4.12 µg/mL)
MIC (Mtb H37Rv-WT; [6]): < 1 µM
MIC (M. smegmatis): 1 to 10 µM (≈ 0.412 to 4.12 µg/mL)
MIC (M. abscessus R): 1 to 10 µM (≈ 0.412 to 4.12 µg/mL)

CC(C)[C@H]1CO[C@]23CCN(Cc4ccc(Cl)cc4)C[C@H]2CCC(=O)N13 [Example 4, (3S,7aR,11aR)-9-[(4-chlorophenyl)methyl]-3-isopropyl-2,3,6,7,7a,8,10,11-octahydrooxazolo[2,3-j][1,6]naphthyridin-5-one]
IC50 [2]: < 100 nM
IC50 ([1]; read-out: IC50 Ndh-M. tb): < 0.1 µM
MIC (Mtb H37Rv-WT; [6]): < 1 µM

CC(C)[C@H]1CO[C@]23CCN(Cc4ccc(Cl)c(Cl)c4)C[C@H]2CCC(=O)N13 [Example 5, (3S,7aR,11aR)-9-[(3,4-dichlorophenyl)methyl]-3-isopropyl-2,3,6,7,7a,8,10,11-octahydrooxazolo[2,3-j][1,6]naphthyridin-5-one]
IC50 ([1]; read-out: IC50 Ndh-M. tb): < 0.1 µM
MIC (Mtb H37Rv-WT; [6]): < 1 µM

CC(C)[C@H]1CO[C@]23CCN(Cc4ccc(Cl)c(C(F)(F)F)c4)C[C@H]2CCC(=O)N13 [Example 9, (3S,7aR,11aR)-9-[[4-chloro-3-(trifluoromethyl)phenyl]methyl]-3-isopropyl-2,3,6,7,7a,8,10,11-octahydrooxazolo[2,3-j][1,6]naphthyridin-5-one]
MIC (BCG): 1 to 10 µM (≈ 0.431 to 4.31 µg/mL)
MIC (M. avium): < 1 µM
MIC (M. marinum): < 1 µM
IC50 ([1]; read-out: IC50 Ndh-M. tb): < 0.1 µM
MIC (M. abscessus S): 1 to 10 µM (≈ 0.431 to 4.31 µg/mL)
MIC (Mtb H37Rv-WT; [6]): < 1 µM
MIC (M. smegmatis): 1 to 10 µM (≈ 0.431 to 4.31 µg/mL)
MIC (M. abscessus R): 1 to 10 µM (≈ 0.431 to 4.31 µg/mL)

CC(C)[C@H]1CO[C@]23CCN(Cc4cc5ccccc5n4C)C[C@H]2CCC(=O)N13 [Example 28, (3S,7aR,11aR)-3-isopropyl-9-[(1-methylindol-2-yl)methyl]-2,3,6,7,7a,8,10,11-ocathydrooxazolo[2,3-j][1,6]naphthyridin-5-one]
IC50 ([1]; read-out: IC50 Ndh-M. tb): < 0.1 µM
MIC (Mtb H37Rv-WT; [6]): < 1 µM
MIC (M. smegmatis): < 1 µM

CC(C)[C@H]1CO[C@]23CCN(CCCc4ccc(C(F)(F)F)cc4)C[C@H]2CCC(=O)N13 [Example 39, (3S,7aR,11aR)-3-isopropyl-9-[3-[4-(trifluoromethyl)phenyl]propyl]-2,3,6,7,7a,8,10,11-octahydrooxazolo[2,3-j][1,6]naphthyridin-5-one]
MIC (Mtb H37Rv-WT; [6]): < 1 µM

CC(C)[C@H]1CO[C@]23CC[C@H](N(Cc4ccc(C(F)(F)F)cc4)Cc4ccc(C(F)(F)F)cc4)C[C@H]2CCC(=O)N13 [Example 70, (3S,7aR,9S,11aR)-9-[bis[[4-(trifluoromethyl)phenyl]methyl]ami-no]-3-isopropyl-3,6,7,7a,8,9,10,11-octahydro-2H-oxazolo[2,3-j]quinolin-5-one]
MIC (Mtb H37Rv-WT; 144 h, REMA, read-out: MIC M. tuberculosis): < 1 µM

CC(C)[C@H]1CO[C@]23CCN(C(=O)OCc4ccc(C(F)(F)F)cc4)C[C@H]2CCC(=O)N13 [[4-(trifluoromethyl)phenyl]methyl (3S,7aR,11aR)-3-isopropyl-5-oxo-2,3,6,7,7a,8,10,11-octahydrooxazolo[2,3-j][1,6]naphthyridine-9-carboxylate]
MIC (Mtb H37Rv-WT; [4]): 1 to 10 µM (≈ 0.44 to 4.4 µg/mL)

CC(C)[C@H]1CO[C@]23CCN(C(=O)OCc4ccccc4)C[C@H]2CCC(=O)N13 [benzyl (3S,7aR,11aR)-3-isopropyl-5-oxo-2,3,6,7,7a,8,10,11-octahydrooxazolo[2,3-j][1,6]naphthyridine-9-carboxylate]
IC50 [1, 3]: 0.1 to 1 µM
MIC (Mtb H37Rv-WT; [4]): 1 to 10 µM (≈ 0.372 to 3.72 µg/mL)
